Structures can show the parent of a compound that is named as a salt. Where two headings read alike, the source gives them in different places.
Legend:
Format in all cases: cell-based
[1] = molecular target: T1, Xenopus laevis VDR (Xenopus laevis, UniProt O13124); assay: luciferase reporter transactivation assay in HepG2-NTCP cells, GAL4/xlVDR LBD chimera with tk-UAS-Luc
T1 sequence (O13124 90-422): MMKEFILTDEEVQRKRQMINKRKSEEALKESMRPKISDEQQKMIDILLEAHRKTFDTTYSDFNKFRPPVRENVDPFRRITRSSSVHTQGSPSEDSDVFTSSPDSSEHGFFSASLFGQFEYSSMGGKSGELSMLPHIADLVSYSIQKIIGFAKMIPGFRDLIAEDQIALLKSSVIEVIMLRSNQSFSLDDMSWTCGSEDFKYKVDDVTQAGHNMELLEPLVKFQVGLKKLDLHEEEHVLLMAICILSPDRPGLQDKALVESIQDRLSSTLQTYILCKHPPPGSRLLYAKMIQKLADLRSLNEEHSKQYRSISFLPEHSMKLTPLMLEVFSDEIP

[2] = molecular target: T2, Zebrafish VDR (Danio rerio, UniProt Q9PTN2); assay: luciferase reporter transactivation assay in HepG2-NTCP cells, GAL4/zfVDR LBD chimera with tk-UAS-Luc
T2 sequence (Q9PTN2 121-453): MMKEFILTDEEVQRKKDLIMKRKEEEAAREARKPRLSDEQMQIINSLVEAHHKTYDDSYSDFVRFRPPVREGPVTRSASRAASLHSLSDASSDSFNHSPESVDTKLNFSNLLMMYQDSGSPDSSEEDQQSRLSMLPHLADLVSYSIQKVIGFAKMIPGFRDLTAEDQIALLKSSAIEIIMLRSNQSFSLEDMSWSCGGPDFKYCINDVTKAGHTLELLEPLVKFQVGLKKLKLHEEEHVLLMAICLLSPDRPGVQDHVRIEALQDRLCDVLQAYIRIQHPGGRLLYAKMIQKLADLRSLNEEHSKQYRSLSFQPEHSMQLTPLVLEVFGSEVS

[3] = molecular target: T3, Sea lamprey VDR (Petromyzon marinus, UniProt Q7ZZY9)
T3 sequence (Q7ZZY9 92-406): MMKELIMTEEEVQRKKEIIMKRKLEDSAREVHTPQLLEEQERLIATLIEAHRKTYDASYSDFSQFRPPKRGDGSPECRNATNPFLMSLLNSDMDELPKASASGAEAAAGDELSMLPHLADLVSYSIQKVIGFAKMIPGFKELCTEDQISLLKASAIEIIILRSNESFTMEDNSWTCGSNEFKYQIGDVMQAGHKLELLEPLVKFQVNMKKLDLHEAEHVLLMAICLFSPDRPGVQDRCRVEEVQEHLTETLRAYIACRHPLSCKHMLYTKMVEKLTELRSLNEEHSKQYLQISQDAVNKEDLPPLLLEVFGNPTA

[4] = screening for activators, at least three concentrations of each drug

CCCCCCCC/C=C\CCCCCCCC(=O)NCCO [N-Oleoylethanolamide]
No effect: Effect on Xenopus laevis VDR [1, 4] | Effect on zebrafish VDR [2, 4] | Effect on sea lamprey VDR [3, 4]

C[C@]12CC[C@@H]3c4ccc(O)cc4CC[C@H]3[C@@H]1C[C@@H](O)[C@@H]2O [Estriol]
No effect: Effect on Xenopus laevis VDR [1, 4] | Effect on zebrafish VDR [2, 4] | Effect on sea lamprey VDR [3, 4]

COc1c(O)ccc2c1CC[C@@H]1[C@@H]2CC[C@]2(C)C(=O)CC[C@@H]12 [4-Methoxyestrone]
No effect: Effect on Xenopus laevis VDR [1] | Effect on zebrafish VDR [2] | Effect on sea lamprey VDR [3]

Hyperforin
No effect: Effect on Xenopus laevis VDR [1, 4] | Effect on zebrafish VDR [2, 4] | Effect on sea lamprey VDR [3, 4]

C#C[C@]1(O)CC[C@H]2[C@@H]3CCC4=CC(=O)CC[C@@H]4[C@H]3CC[C@@]21CC [Levonorgestrol]
No effect: Effect on Xenopus laevis VDR [1, 4] | Effect on zebrafish VDR [2, 4] | Effect on sea lamprey VDR [3, 4]

CCCCCC=CCC=CCC=CCC=CCCCC(=O)O [5,8,11,14-Eicosatetranoic acid]
No effect: Effect on Xenopus laevis VDR [1, 4] | Effect on zebrafish VDR [2, 4] | Effect on sea lamprey VDR [3, 4]

CC(C)[C@@H](O)CC[C@@H](C)[C@H]1CC[C@H]2[C@@H]3CC=C4C[C@@H](O)CC[C@]4(C)[C@H]3CC[C@]12C [24(S)-Hydroxycholesterol]
No effect: Effect on Xenopus laevis VDR [1, 4] | Effect on zebrafish VDR [2, 4] | Effect on sea lamprey VDR [3, 4]

CC(C)CCC[C@@H](C)[C@H]1CC[C@H]2[C@@H]3CC=C4C[C@@H](OS(=O)(=O)O)CC[C@]4(C)[C@H]3CC[C@]12C [Cholesteryl sulfate (5-cholesten-3b-ol), Cholesteryl sulfate]
No effect: Effect on Xenopus laevis VDR [1, 4] | Effect on zebrafish VDR [2, 4] | Effect on sea lamprey VDR [3, 4]

CCC[C@@H](C)[C@H]1CC[C@H]2[C@@H]3[C@H](O)C[C@@H]4C[C@H](O)CC[C@]4(C)[C@H]3C[C@H](O)[C@]12C [5b-Cholan-3a,7a,12a-triol]
No effect: Effect on Xenopus laevis VDR [1, 4] | Effect on zebrafish VDR [2, 4] | Effect on sea lamprey VDR [3, 4]

C[C@H](CCC(=O)NCCS(=O)(=O)[O-])[C@H]1CC[C@H]2[C@@H]3CC[C@@H]4C[C@H](O)CC[C@]4(C)[C@H]3C[C@H](O)[C@]12C.[Na+] [Taurodeoxycholic acid sodium salt]
No effect: Effect on Xenopus laevis VDR [1, 4] | Effect on zebrafish VDR [2, 4] | Effect on sea lamprey VDR [3, 4]

C[C@]12CC[C@@H](O)C[C@H]1CC[C@@H]1[C@@H]2[C@@H](O)C[C@@]2(C)[C@H]1CC[C@]2(O)[C@@H](O)CO [Cortol]
No effect: Effect on Xenopus laevis VDR [1, 4] | Effect on zebrafish VDR [2, 4] | Effect on sea lamprey VDR [3, 4]

CC1(COc2ccc(CC3SC(=O)NC3=O)cc2)CCCCC1 (stereo not drawn) [Ciglitazone]
No effect: Effect on Xenopus laevis VDR [1, 4] | Effect on zebrafish VDR [2, 4] | Effect on sea lamprey VDR [3, 4]

CC[C@H](CC[C@@H](C)[C@H]1CC[C@H]2[C@@H]3CC=C4C[C@@H](O)CC[C@]4(C)[C@H]3CC[C@]12C)C(C)C [Beta-sitosterol]
No effect: Effect on Xenopus laevis VDR [1, 4] | Effect on zebrafish VDR [2, 4] | Effect on sea lamprey VDR [3, 4]

CC(C(=O)O)c1ccc(-c2ccccc2)c(F)c1 (stereo not drawn) [Flurbiprofen]
No effect: Effect on Xenopus laevis VDR [1, 4] | Effect on zebrafish VDR [2, 4] | Effect on sea lamprey VDR [3, 4]

C[C@H](CC[C@@H]1OC1(C)C)[C@H]1CC[C@H]2[C@@H]3CC=C4C[C@@H](O)CC[C@]4(C)[C@H]3CC[C@]12C [24(S)-,25-Epoxycholesterol]
No effect: Effect on Xenopus laevis VDR [1, 4] | Effect on zebrafish VDR [2, 4] | Effect on sea lamprey VDR [3, 4]

CC1=C(/C=C/C(C)=C/C=C/C(C)=C/C(=O)O)C(C)(C)CCC1 [All trans retinoic acid]
No effect: Effect on Xenopus laevis VDR [1, 4] | Effect on zebrafish VDR [2, 4] | Effect on sea lamprey VDR [3, 4]

C[C@]12CC[C@@H](O)C[C@H]1CC[C@@H]1[C@@H]2CC[C@]2(C)C(=O)CC[C@@H]12 [Etiocholanolone]
No effect: Effect on Xenopus laevis VDR [1, 4] | Effect on zebrafish VDR [2, 4] | Effect on sea lamprey VDR [3, 4]

Cc1c(C)c2c(c(C)c1O)CC[C@@](C)(CCC[C@H](C)CCC[C@H](C)CCCC(C)C)O2 [Alpha-tocopherol]
No effect: Effect on Xenopus laevis VDR [1, 4] | Effect on zebrafish VDR [2, 4] | Effect on sea lamprey VDR [3, 4]

C[C@]12CCC(=O)C=C1CC[C@@H]1[C@@H]2C(=O)C[C@@]2(C)[C@H]1CC[C@]2(O)C(=O)CO [Cortisone]
No effect: Effect on Xenopus laevis VDR [1, 4] | Effect on zebrafish VDR [2, 4] | Effect on sea lamprey VDR [3]

C[C@]12CC[C@@H](O)C[C@H]1CC[C@@H]1[C@@H]2[C@@H](O)C[C@]2(C)C(=O)CC[C@@H]12 [5b-Androstan-3a,11b-17-one]
No effect: Effect on Xenopus laevis VDR [1, 4] | Effect on zebrafish VDR [2, 4] | Effect on sea lamprey VDR [3, 4]

CC(C)(Sc1ccc(CCN(CCCCC2CCCCC2)C(=O)NC2CCCCC2)cc1)C(=O)O [GW 7647]
No effect: Effect on Xenopus laevis VDR [1, 4] | Effect on zebrafish VDR [2, 4] | Effect on sea lamprey VDR [3, 4]

C#C[C@]1(O)CC[C@H]2[C@@H]3CCc4cc(O)ccc4[C@H]3CC[C@@]21C [Ethinyl estradiol]
No effect: Effect on Xenopus laevis VDR [1, 4] | Effect on zebrafish VDR [2, 4] | Effect on sea lamprey VDR [3, 4]

C[C@H](CCC(=O)NCCS(=O)(=O)[O-])[C@H]1CC[C@H]2[C@@H]3C[C@H](O)[C@@H]4C[C@H](O)CC[C@]4(C)[C@H]3CC[C@]12C.[Na+] [Taurohyodeoxycholic acid]
No effect: Effect on Xenopus laevis VDR [1, 4] | Effect on zebrafish VDR [2, 4] | Effect on sea lamprey VDR [3, 4]

COC(=O)[C@H]1[C@H]2C[C@@H]3c4[nH]c5cc(OC)ccc5c4CCN3C[C@H]2C[C@@H](OC(=O)c2cc(OC)c(OC)c(OC)c2)[C@@H]1OC [Reserpine]
No effect: Effect on Xenopus laevis VDR [1, 4] | Effect on zebrafish VDR [2, 4] | Effect on sea lamprey VDR [3, 4]

C[C@H](CCC(=O)O)[C@H]1CC[C@H]2[C@@H]3C(=O)C[C@@H]4C[C@H](O)CC[C@]4(C)[C@H]3C[C@H](O)[C@]12C [7-Ketodeoxycholic acid]
No effect: Effect on Xenopus laevis VDR [1, 4] | Effect on zebrafish VDR [2, 4] | Effect on sea lamprey VDR [3, 4]

C[C@]12CC[C@@H](O)C[C@H]1CC[C@@H]1[C@@H]2C(=O)C[C@@]2(C)[C@H]1CC[C@]2(O)C(=O)CO [Tetrahydrocortisone]
No effect: Effect on Xenopus laevis VDR [1, 4] | Effect on zebrafish VDR [2, 4] | Effect on sea lamprey VDR [3, 4]

4-Pregnen-17,20b-diol-3-one sulfate
No effect: Effect on Xenopus laevis VDR [1, 4] | Effect on zebrafish VDR [2, 4] | Effect on sea lamprey VDR [3, 4]

C[C@H](CCC(=O)O)[C@H]1CC[C@H]2[C@@H]3C[C@H](O)[C@@H]4C[C@H](O)CC[C@]4(C)[C@H]3CC[C@]12C [5b-Cholanic acid-3a,6a-diol]
No effect: Effect on Xenopus laevis VDR [1, 4] | Effect on zebrafish VDR [2, 4] | Effect on sea lamprey VDR [3]

CC(C)(O)[C@H]1O[C@H]2CC[C@@]3(C)[C@@](O)(CC[C@H]4Cc5c([nH]c6ccccc56)[C@@]43C)C2=CC1=O [Paxilline]
No effect: Effect on Xenopus laevis VDR [1, 4] | Effect on zebrafish VDR [2, 4] | Effect on sea lamprey VDR [3, 4]

C[C@]12CC[C@@H]3c4ccc(O)cc4CC[C@H]3[C@@H]1[C@@H](O)[C@@H](O)[C@@H]2O [Estetrol]
No effect: Effect on Xenopus laevis VDR [1, 4] | Effect on zebrafish VDR [2, 4] | Effect on sea lamprey VDR [3, 4]

C[C@]12CC[C@@H](O)C[C@@H]1CC[C@@H]1[C@@H]2CC[C@]2(C)[C@@H](O)CC[C@@H]12 [5a-Androstan-3a,17b-diol]
No effect: Effect on Xenopus laevis VDR [1, 4] | Effect on zebrafish VDR [2, 4] | Effect on sea lamprey VDR [3, 4]

C[C@H](CCC(=O)O)[C@H]1CC[C@H]2[C@@H]3C(=O)C[C@@H]4C[C@H](O)CC[C@]4(C)[C@H]3CC[C@]12C [7-Ketolithocholic acid]
No effect: Effect on Xenopus laevis VDR [1, 4] | Effect on zebrafish VDR [2, 4] | Effect on sea lamprey VDR [3, 4]

C[C@]12CC[C@@H]3c4ccc(O)cc4CC[C@H]3[C@@H]1C[C@@H](O)C2=O [16a-Hydroxyestrone]
No effect: Effect on Xenopus laevis VDR [1, 4] | Effect on zebrafish VDR [2, 4] | Effect on sea lamprey VDR [3, 4]
